SMILES strings stand for the structures.

The test system of the assay is Plasmodium falciparum 3D7. Kind of assay: pEC50, asexual blood-stage growth inhibition. To be noted: 72 h. As for the experimental part: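 Held-out test set measured in the Guy lab in 2014 with the same procedure as the primary St. Jude screen. P. falciparum 3D7 blood-stage culture (2% hematocrit, 1% parasitemia) was treated with compound for 72 h at 37 °C, and growth was read by SYBR Green I fluorescence. EC50 came from a four-parameter Hill fit over a 10-point dilution series […].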
In the case of `COc1ccc(C)cc1S(=O)(=O)N1CCC(CO)(Cc2cccc(C(F)(F)F)c2)CC1`, the pEC50 is under 4.82. `OC(CNC1CCCCC1)COc1ccc(OCc2ccccc2)cc1` (configuration not stated) gave a pEC50 of under 4.82. Under `COc1ccc(NCC(O)Cn2c3ccc(Cl)cc3c3cc(Cl)ccc32)c(OC)c1` (configuration not stated) stands under 4.82. Under `OC(CNCCc1ccccc1)Cn1c2ccc(Br)cc2c2cc(Br)ccc21` (configuration not stated) stands 5.81; under `Clc1ccc(CN2CCN(C3CC4CCC3C4)CC2)cc1` (configuration not stated), under 4.82. Under `Cc1ccc(OCC(O)CNC2CCCC2)cc1C` (configuration not stated) stands 5.85; under `CCOc1ccc(-c2nc3cc(C)ccc3[nH]2)cc1`, 5.12; under `CC1=C(C(=O)OCCOc2ccccc2)C(c2cccc(O)c2)C2=C(CC(c3ccc(Cl)cc3)CC2=O)N1` (configuration not stated), under 4.82. In turn, `CCN(CC)CCN1C(=O)c2ccccc2NC1c1ccc(Br)cc1` (configuration not stated) yielded a negative-log EC50 (pEC50) of 5.74. As for `CCN1CCN(Cc2c(O)ccc3c(=O)c(Oc4ccccc4Br)c(C(F)(F)F)oc23)CC1`, the pEC50 was 5.46. Regarding `CCOC(=O)c1cnc2c(OC)cccc2c1Nc1cccc(C(C)=O)c1`, the pEC50 came to 5.55.

`Cc1cccc(Oc2c(C(F)(F)F)oc3c(CN4CCN(C)CC4)c(O)ccc3c2=O)c1` displayed a pEC50 of 5.27. Molecule `CCN(CC)c1nc(Nc2ccc(O)cc2)nc(Nc2cc(C)ccc2C)n1` returned a pEC50 of under 4.82. Turning to `OCCC1CN(Cc2cc(Cl)ccc2O)CCN1CCCc1ccccc1` (configuration not stated), the pEC50 is under 4.82. The molecule `Cc1ccccc1NCC(O)Cn1c2ccc(Cl)cc2c2cc(Cl)ccc21` (configuration not stated) had a pEC50 of 5.44. In the case of `O=C(Nc1ccc([N+](=O)[O-])cc1O)C1CC1(c1ccccc1)c1ccccc1` (configuration not stated), the pEC50 was under 4.82. `C=CCn1c(=O)/c(=C/C=C2\C=CN(CC)c3ccccc32)s/c1=C\c1sc(-c2ccccc2)c(-c2ccccc2)[n+]1CC` came in with a pEC50 of 5.37. In the case of `CCOC(=O)c1ccc(NC(=O)CC2C(=O)N(c3ccc(OC)cc3)C(=O)N2CCC(C)C)cc1` (configuration not stated), the pEC50 was under 4.82. `O=C(Cc1ccccc1)Nc1ccc(-c2nc3cc(-c4nc5cc(NC(=O)Cc6ccccc6)ccc5[nH]4)ccc3[nH]2)cc1` had a pEC50 of under 4.82. For `Nc1ccc(C(=O)Nc2ccc(-c3nc4cc(NC(=O)c5ccc(N)cc5)ccc4[nH]3)cc2)cc1`, the pEC50 was under 4.82. The molecule `Cc1ccc2[nH]c(-c3ccc(Br)cc3)nc2c1` yielded a pEC50 of under 4.82.

Take `OC(CNc1cccc2ccccc12)Cn1c2ccc(Cl)cc2c2cc(Cl)ccc21` (configuration not stated): the pEC50 is 5.36. The same measure for `CCOC(=O)c1ccc(NC(=O)/C=C/c2ccccc2Cl)cc1`: under 4.82; for `CCN(CC)c1nc(Nc2cccc(Br)c2)nc(Nc2cc(C)ccc2C)n1`: under 4.82.

For `O=C(Cc1ccc(Br)cc1)Nc1cccc(-c2nc3ccccc3[nH]2)c1`, the pEC50 was under 4.82. Regarding `OC(CNCCc1ccccc1)COc1ccccc1Cl` (configuration not stated), the pEC50 was found to be 5.3. Take `O=C(Nc1ccc(-c2nc3ccccc3[nH]2)cc1)c1cncc(Br)c1`: the pEC50 was 5.35. Molecule `COc1ccccc1-c1cc(C(=O)N2CCC(Cc3ccccc3)CC2)c2ccccc2n1` came in with a pEC50 of under 4.82. As to `Cc1cccc(NC(=O)/C=C/c2ccccc2Cl)c1`, the pEC50 was under 4.82. The same measure for `COC(=O)C1=C(C)NC2=C(C(=O)CC(c3ccc(Cl)cc3)C2)C1c1cccc(O)c1` (configuration not stated): under 4.82; for `Cc1ccc(C)c(NCC(O)Cn2c3ccccc3c3ccccc32)c1` (configuration not stated): under 4.82; for `COc1ccc(CN2CCCn3c4c(c5cc(C)ccc53)CCCC42)cc1O` (configuration not stated): under 4.82. `N=c1n(CCN2CCCCC2)c2ccccc2n1CC(O)COc1ccc(Cl)cc1Cl` (configuration not stated) came in with a pEC50 of 5.53. For `Cc1ccc2[nH]c(-c3ccc(NC(=O)c4ccc(C)c(C)c4)cc3)nc2c1`, the negative logarithm of the EC50 (pEC50) amounted to 5.44. The molecule `CCOC(=O)c1cnc2ccccc2c1Nc1ccc2c(c1)OCCO2` displayed a pEC50 of under 4.82. The molecule `Cn1nccc1C(=O)Nc1cc(Oc2ccc(Cl)cc2)cc([N+](=O)[O-])c1` came in with a negative logarithm of the EC50 (pEC50) of under 4.82. For `Cc1ccc(NC(=O)/C=C/c2ccccc2Cl)cc1`, the pEC50 was found to be 5.46. In turn, `O=C(NCC1CCCCC1)c1cn(C2CC2)cc(C(=O)NC2CCN(Cc3ccccc3)C2)c1=O` (configuration not stated) displayed a pEC50 of under 4.82.

Turning to `C=CCn1c(=N)n(CC(O)c2ccc(Br)cc2)c2ccccc21` (configuration not stated), the pEC50 is 5.62. `CC1CCN(CC(O)Cn2c3ccc(Cl)cc3c3cc(Cl)ccc32)CC1` (configuration not stated) registered a pEC50 of under 4.82. `OCCC1CN(Cc2cc(Cl)ccc2O)CCN1Cc1ccccc1` (configuration not stated) had a pEC50 of under 4.82. On to `CCCCN(CCCC)CC(O)COc1ccccc1[N+](=O)[O-]` (configuration not stated), for which the pEC50 amounted to 7.13. Turning to `Cc1cccc(NCC(O)Cn2c3ccccc3c3ccccc32)c1C` (configuration not stated), the pEC50 is under 4.82. Molecule `Cc1ccc(OCC(O)CNC2CCCC2)c(C)c1` (configuration not stated) gave a pEC50 of 5.19. Consider `Cc1cc(S(=O)(=O)N2CCC(CO)(Cc3cccc(C(F)(F)F)c3)CC2)c(C)cc1Cl`, for which the pEC50 was under 4.82. The same measure for `CC(=O)Nc1cccc(Nc2nc(N3CCCCC3)nc(N(c3ccccc3)c3ccccc3)n2)c1`: 5.61. Under `COc1ccc(CCNCC(O)Cn2c3ccccc3c3ccccc32)cc1OC` (configuration not stated) stands 5.26. On to `Cc1ccc(OCCN(C)C(=O)c2cn(C3CCCCC3)cc(C(=O)NC(C)(C)C)c2=O)cc1`, for which the pEC50 was determined as 5.03. The molecule `CC(C)CCn1cc(C(=O)NC(C)(C)C)c(=O)c(C(=O)N2CCN(C/C=C/c3ccccc3)CC2)c1` displayed a negative-log EC50 (pEC50) of under 4.82. In turn, `CN1CCN(Cc2c(O)ccc3c(=O)c(-c4cccc5ccccc45)c(C(F)(F)F)oc23)CC1` gave a pEC50 of under 4.82.

`Cc1ccc(NCC(O)Cn2c3ccccc3c3ccccc32)cc1` (configuration not stated) gave a negative logarithm of the EC50 (pEC50) of under 4.82. The molecule `CC(C)(C)NC(=O)c1cn(C2CCCCC2)cc(C(=O)NC2CCN(Cc3ccccc3)CC2)c1=O` registered a pEC50 of under 4.82. `CCOc1ccc(NCC(O)Cn2c3ccc(Cl)cc3c3cc(Cl)ccc32)cc1` (configuration not stated) returned a pEC50 of 5.13.

Molecule `O=C(Cc1cccc2ccccc12)Nc1ccc(-c2nc3ccccc3[nH]2)cc1` had a pEC50 of 5.57. As for `Nc1cccc(-c2nc3cc(Oc4ccc5[nH]c(-c6cccc(N)c6)nc5c4)ccc3[nH]2)c1`, the pEC50 is under 4.82.

`Nc1ccc(-c2nc3cc(-c4nc5cc(N)ccc5[nH]4)ccc3[nH]2)cc1` had a pEC50 of 5.64. `COc1ccc(CC2(CO)CCN(S(=O)(=O)c3cccc(C(F)(F)F)c3)CC2)cc1` returned a pEC50 of under 4.82. `COc1cc(C2CC(=O)NC3=C2C(=O)CC(c2ccc(F)cc2)C3)c(OC)cc1Br` (configuration not stated) displayed a pEC50 of under 4.82. Molecule `CCCCn1c(=N)n(CC(O)c2ccc(OC)cc2)c2ccccc21` (configuration not stated) registered a pEC50 of under 4.82. For `OCCCNCC(O)Cn1c2ccccc2c2ccccc21` (configuration not stated), the pEC50 was under 4.82. For the molecule `CCOc1ccc(NC(=O)/C=C/c2ccccc2Cl)cc1`, the pEC50 was 6.34.

In turn, `OC(CN1CCN(Cc2ccccc2)CC1)Cn1c2ccc(Cl)cc2c2cc(Cl)ccc21` (configuration not stated) had a pEC50 of under 4.82.

For `OC(CNC1CCCCC1)Cn1c2ccccc2c2ccccc21` (configuration not stated), the pEC50 was 5.33. The molecule `CN(C)c1ccc(NC(=O)/C=C/c2cccc(Cl)c2)cc1` displayed a pEC50 of 6.39.

Molecule `OC(CNc1ccc(Cl)cc1)Cn1c2ccc(Cl)cc2c2cc(Cl)ccc21` (configuration not stated) registered a pEC50 of under 4.82. In turn, `Cc1ccc(NCC(O)Cn2c3ccc(Cl)cc3c3cc(Cl)ccc32)cc1` (configuration not stated) showed a pEC50 of 5.28. Molecule `Cc1cccc(NC(=O)CSc2nc(C)c(C)n2-c2ccccc2)c1C` yielded a pEC50 of under 4.82. For `CC(CN1CCCCC1)NC(=O)c1cc(-c2cccnc2)nc2ccc(Cl)cc12` (configuration not stated), the pEC50 came out at 5.7. The molecule `Oc1nc(/C=C/c2cccc3ccccc23)nc2ccccc12` displayed a pEC50 of under 4.82. As for `COc1cc(CNn2nnnc2N)cc(Cl)c1OC`, the pEC50 is under 4.82.

The molecule `Oc1ccc(Cl)cc1CN1CCCC(N2CCCC2)C1` (configuration not stated) gave a negative logarithm of the EC50 (pEC50) of under 4.82. For the molecule `CCC(C(=O)Nc1cccc(-c2nc3ccccc3[nH]2)c1)c1ccccc1` (configuration not stated), the pEC50 is under 4.82. Molecule `CCN(CC)CC(O)COc1ccc(CNC2CCCCC2)cc1OC` (configuration not stated) came in with a pEC50 of under 4.82. `COc1ccc(OC)c(C2CC(=O)C3=C(C2)NC(=O)CC3c2cccc(Cl)c2Cl)c1` (configuration not stated) showed a pEC50 of 5.61. The molecule `O=C(Cc1ccccc1)N1CCN(c2ccc([N+](=O)[O-])c(NC3CC3)c2)CC1` showed a pEC50 of under 4.82. Consider `Cc1ccc2nc(-c3cccnc3)cc(C(=O)N3CCN(C(c4ccccc4)c4ccccc4)CC3)c2c1`, for which the pEC50 is 5.71. `COc1c(O)ccc(/C=N/NC(=O)C2CC2(c2ccccc2)c2ccccc2)c1[N+](=O)[O-]` (configuration not stated) came in with a negative logarithm of the EC50 (pEC50) of under 4.82. As for `O=C(NC1C2CC3CC(C2)CC1C3)c1ccc2c(=O)n3c(nc2c1)CCCCC3` (configuration not stated), the pEC50 is under 4.82.

For the molecule `O=c1c2ccccc2nc(SCc2cn3ccccc3n2)n1Cc1ccco1`, the pEC50 was under 4.82. `O=C(CC1C(=O)N(c2cccc(F)c2)C(=O)N1CCc1ccccc1F)Nc1cccc(F)c1` (configuration not stated) yielded a pEC50 of under 4.82. The molecule `O=C(NCC1CCCCC1)c1cn(C2CC2)cc(C(=O)NC2CCN(Cc3ccccc3)CC2)c1=O` returned a pEC50 of under 4.82. Under `C=CCn1c(=N)n(CC(O)c2cccc(Br)c2)c2ccccc21` (configuration not stated) stands 5.66; under `OC(CNCC1CCCO1)Cn1c2ccc(Br)cc2c2cc(Br)ccc21` (configuration not stated), 5.76; under `COc1ccccc1-c1c(C(F)(F)F)oc2c(CN3CCCC3)c(O)ccc2c1=O`, under 4.82.

In turn, `CCOC(=O)C1=C(C)NC2=C(C(=O)CC(c3ccc(Cl)cc3)C2)C1c1cc(OC)c(OC)c(OC)c1` (configuration not stated) registered a pEC50 of under 4.82.

As for `COc1ccccc1-c1c(C(F)(F)F)oc2c(CN3CCC(C)CC3)c(O)ccc2c1=O`, the negative-log EC50 (pEC50) was under 4.82.

`COc1ccc(C2C(C(=O)OCCOc3ccccc3)=C(C)NC3=C2C(=O)CC(c2ccc(Cl)cc2)C3)cc1` (configuration not stated) had a pEC50 of under 4.82. For the molecule `CCOC(=O)c1cnc2c(Cl)cccc2c1Nc1cccc(C(C)=O)c1`, the pEC50 stood at 5.35. Under `Cc1ccc2c(c1)c1c3n2CCCN=C3CCC1` stands under 4.82. `CCn1c2ccccc2c2cc(CNC3CCCCC3)ccc21` returned a negative logarithm of the EC50 (pEC50) of under 4.82. Molecule `COc1ccc(CCNC(=O)c2cn(C3CCCCC3)cc(C(=O)NC(C)(C)C)c2=O)cc1` displayed a pEC50 of 6.95.

`Cc1onc(-c2c(Cl)cccc2Cl)c1C(=O)Nc1cc(Cl)ccc1Cl` came in with a pEC50 of 6.54.

By pEC50 is commonly meant the negative decadic logarithm of the EC50, by convention in mol/L.

These data come from the supplement of paper PMC5580409.
